≈ marks a conversion by molar mass, not a printed value.
Tests used:
[1] = target: Human immunodeficiency virus type 1 integrase (Human immunodeficiency virus 1, UniProt Q7ZJM1); assay: Inhibition of strand transfer activity of HIV integrase
[2] = tested on: Human immunodeficiency virus 1; assay: Antiviral activity against HIV1 3B in MT4 cells; assay type: functional, organism-based; details: Human immunodeficiency virus 1, 3B
MT4 = assay: Cytotoxicity against MT4 cells; assay type: functional; details: Homo sapiens
[3] = tested on: Human immunodeficiency virus 1; assay: Antiviral activity against HIV1 3B in MT2 cells; assay type: functional, organism-based; details: Human immunodeficiency virus 1, 3B
[4] = tested on: Human immunodeficiency virus 1; assay: Antiviral activity against HIV1 3B assessed as protein binding effect in MT2 cells; assay type: functional, organism-based; details: Human immunodeficiency virus 1, 3B
physchem = details: buffer, pH 7.3
[5] = buffer, pH 7.3

Human immunodeficiency virus type 1 integrase, sequence (Q7ZJM1 whole entry): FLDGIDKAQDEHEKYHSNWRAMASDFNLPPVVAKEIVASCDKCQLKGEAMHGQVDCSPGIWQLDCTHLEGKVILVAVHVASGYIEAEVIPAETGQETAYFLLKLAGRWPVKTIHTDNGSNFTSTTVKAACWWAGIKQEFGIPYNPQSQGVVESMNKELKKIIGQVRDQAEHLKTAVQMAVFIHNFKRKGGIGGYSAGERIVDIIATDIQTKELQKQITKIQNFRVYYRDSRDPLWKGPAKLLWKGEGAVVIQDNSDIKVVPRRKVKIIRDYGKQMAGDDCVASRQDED

| solubility [5] [µM] | SMILES | IC50 [1] [µM] | EC50 [2] [µM] | CC50 (MT4) [µM] | EC50 [3] [µM] | EC50 [4] [µM] | solubility (physchem) [µM] | IC50 [2] [µM] |
| --- | --- | --- | --- | --- | --- | --- | --- | --- |
| – | COc1c2c(c(O)c3ncccc13)C(=O)N(Cc1ccc(F)cc1)C2 | 0.05 | 0.089 | 5.1 | – | – | – | – |
| – | O=C(NCc1ccc(F)cc1)c1ccc2cccnc2c1O | 2 | > 10 | – | – | – | – | – |
| – | O=C1c2c(c(C(=O)N3CCOCC3)c3cccnc3c2O)CN1Cc1ccc(F)cc1 | 0.036 | – | 4 | 0.0034 | 0.054 | 97 (≈ 40.9 µg/mL) | – |
| – | CN(C)C(=O)Oc1c2c(c(O)c3ncccc13)C(=O)N(Cc1ccc(F)cc1)C2 | 0.76 | 0.003 | 1.5 | – | – | – | – |
| – | O=C(NCc1ccccn1)c1c2c(c(O)c3ncccc13)C(=O)N(Cc1ccc(F)cc1)C2 | 0.19 | – | 1.6 | 0.0098 | 0.094 | 36 (≈ 15.9 µg/mL) | – |
| – | CCOC(=O)c1cccc(-c2c3c(c(O)c4ncccc24)C(=O)N(Cc2ccc(F)cc2)C3)c1 | 2.1 | 0.34 | 1 | – | – | – | – |
| – | O=C1c2c(cc3cccnc3c2O)CN1Cc1ccc(F)cc1 | 0.07 | – | – | – | – | – | 0.1 |
| – | CN(C)C(=O)Oc1c2c(c(O)c3ncccc13)C(=O)N(Cc1ccc(F)cc1)C2=O | 2.4 | – | 22 | – | – | 2.5 (≈ 1.02 µg/mL) | 1.18 |
| – | COc1c2c(c(O)c3ncccc13)C(=O)N(Cc1ccc(F)cc1)C2=O | 0.08 | 7.5 | 19 | – | – | < 1.4 | – |
| – | CCOc1ccc(-c2c3c(c(O)c4ncccc24)C(=O)N(Cc2ccc(F)cc2)C3)cc1 | 1.2 | 0.78 | 1 | – | – | – | – |
| – | CCOC(=O)c1ccccc1-c1c2c(c(O)c3ncccc13)C(=O)N(Cc1ccc(F)cc1)C2 | 0.35 | 0.07 | 0.4 | – | – | – | – |
| – | O=C1c2c(c(-c3c(F)cccc3F)c3cccnc3c2O)CN1Cc1ccc(F)cc1 | 0.335 | 0.011 | 0.3 | – | – | – | – |
| 7.2 (≈ 3.1 µg/mL) | O=C(NCc1ccc(F)cc1)c1nc(N2CCCCS2(=O)=O)c2cccnc2c1O | 0.05 | – | 1.5 | 0.0038 | 0.088 | – | – |

Source: ChEMBL document CHEMBL1138966 (Bioorg Med Chem Lett, 2006)
